≈ marks a conversion by molar mass, not a printed value. Where “and” joins values, the source holds several entries; their conditions need not be identical. Equal values may be shown once.
Legend:
[1] = test system: PCA (homologous passive cutaneous anaphylaxis) in rat; assay: Inhibitory activity against PCA in rat; assay type: in vivo, rat (male Slc: Wistar); conditions: 5 mg/kg oral, 1 hour before antigen challenge; for inhibition in vivo at 5 mg/kg: Rattus norvegicus, read-out: Inhibition rate against PCA
Experimental: An anti-dinitrophenylated-ovalbumin (hereinafter referred to as "anti-DNP-OVA") rat antiserum having 800 of PCA titer in homologous passive cutaneous anaphylaxis reaction in rats for 48 hours, was diluted 200 times with physiological saline, and diluted antiserum was injected intradermally into back of groups of 5 male Slc: Wistar rats weighing 130-150 g in a volume of 50 μl/site to be passively sensitized. After 48 hours, 0.6 ml of 1% (w/v) Evans blue solution containing 1.5 mg of antigen DNP-OVA was administered intravenously into the tail. Thirty minutes later, the rats were bled to death and skin of the rats was removed. According to the method of Katayama et al [Microbiol. […] The test compound was suspended in 0.5% (w/v) aqueous solution of carboxymethylcellulose (hereinafter referred to as "CMC"), the suspension was administered orally in a ratio of 5 mg/kg 1 hour before challenging an antigen.
Inhibition rate against PCA was calculated according to the following equation. [formula] M: Amount of leaked pigment in antibody-sensitized site under administration of CMC without the test compound
S: Amount of leaked pigment in antibody-sensitized site under administration of the test compound in CMC
B: Amount of leaked pigment in antibody-nonsensitized site

[2] = biological target: T1, 5-lipoxygenase (Cavia porcellus, UniProt A0A286X958); assay: 5-lipoxygenase inhibiting activity in guinea pig; assay type: biochemical; conditions: read-out: Inhibition rate against 5-lipoxygenase activity
T1 construct: 5-lipoxygenase was prepared with polymorphonuclear leukocyte obtained from peritoneal cavity; endogenous in cells; host or cells: guinea pig peritoneal polymorphonuclear leukocytes (casein-elicited)
T1 sequence (A0A286X958 1-674): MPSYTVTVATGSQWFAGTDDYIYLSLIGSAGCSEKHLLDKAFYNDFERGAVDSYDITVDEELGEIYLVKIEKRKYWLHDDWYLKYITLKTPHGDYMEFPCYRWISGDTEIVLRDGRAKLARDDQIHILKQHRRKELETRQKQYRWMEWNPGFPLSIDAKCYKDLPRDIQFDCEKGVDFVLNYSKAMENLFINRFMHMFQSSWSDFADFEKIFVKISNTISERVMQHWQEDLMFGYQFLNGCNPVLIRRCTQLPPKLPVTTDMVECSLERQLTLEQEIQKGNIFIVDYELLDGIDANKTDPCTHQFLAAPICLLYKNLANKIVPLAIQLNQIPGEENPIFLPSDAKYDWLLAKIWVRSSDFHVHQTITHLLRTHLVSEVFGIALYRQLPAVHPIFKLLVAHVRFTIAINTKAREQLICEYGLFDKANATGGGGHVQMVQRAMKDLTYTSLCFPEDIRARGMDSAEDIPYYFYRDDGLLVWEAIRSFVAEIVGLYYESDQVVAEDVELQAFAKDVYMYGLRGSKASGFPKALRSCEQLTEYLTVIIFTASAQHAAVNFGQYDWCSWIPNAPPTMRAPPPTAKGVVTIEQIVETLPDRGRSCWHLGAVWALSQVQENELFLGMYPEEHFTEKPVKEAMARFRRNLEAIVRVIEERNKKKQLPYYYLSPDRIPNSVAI
Experimental: The test was carried out according to the method of Ochi [cf. J. Biol. Chem., 258, 5754-5758 (1983)]. Two % casein solution in saline was injected intraperitoneally into guinea pigs in an amount of 1/10 of body weight. After 16 hours, 5-lipoxygenase was prepared with polymorphonuclear leukocyte obtained from peritoneal cavity. Test compound and 5-lipoxygenase were pre-incubated at 30° C. for 10 minutes, CaCl2 (calcium chloride) and ^14 C-arachidonic acid were added thereto, and the resulting mixture was incubated for 20 minutes. A mixture of ethyl acetate/methanol/0.2M citric acid=30/4/1 (by volume) was added thereto to stop the reaction. After centrifugation, the organic solvent layer was spotted on a plate for thin layer chromatography and developed. Effect of the test compound was determined from the amount of ^14 C-5-hydroxyeicosatetraenoic acid (hereinafter referred to as "5-HETE") formed from ^14 C-arachidonic acid. Radioactivity of 5-HETE position was measured with a liquid scintillation counter.
Inhibition rate against 5-lipoxygenase activity was calculated according to the following equation.
Inhibition rate against 5-lipoxygenase activity [formula] A: Value of radioactivity in the control group B: Value of radioactivity in the test compound group
Each test compound was used in a concentration of 10 μM.

[3] = test system: histamine release from rat mast cell; assay: Inhibitory activity against histamine release from rat mast cell; assay type: cell-based; conditions: 10 μg/ml, read-out: Inhibitory rate against histamine release
Experimental: An anti-dinitrophenylated-ovalbumin (anti DNP-OVA) rat antiserum having 800 of PCA titer in homologous passive cutaneous anaphylaxis reaction in rats for 48 hours was diluted double with physiological saline, and 1 ml of diluted antiserum was injected intraperitoneally into rats to be passively sensitized. On the next day, peritoneal exudation cell (hereinafter referred to as "PEC") was collected. The collected PEC was washed with a medium containing 0.1% BSA, and 1.5×10^5 of the PEC were added to each test tube. AFter incubation at 37° C. for 10 minutes, 50 μl of test compound solution in a same medium was added thereto. After 30 seconds, 50 μl of antigen solution (DVA-OVA 100 μg/ml) was further added thereto to give the total amount of 500 μl of the reaction mixture, and histamine release reaction was induced. After 10 minutes, 1 ml of physiological saline with cooled Tris buffered solution containing 1 mM EDTA were added thereto to stop the reaction. After centrifugation, the amount of histamine in supernatant was determined by fluorescence method according to the method of Shore et al [cf. J. Pharmacol. Exp. Ther., 127, 182 (1959)]. Inhibition rate against histamine release was calculated according to the following equation.
Inhibition rate against histamine release [formula] M: Amount of histamine in supernatant under addition of antigen and non-addition of test compound
S: Amount of histamine in supernatant under addition of antigen and test compound
B: Amount of histamine in supernatant under non-addition of antigen and test compound.
The test compound was used in a concentration of 10 μg/ml.

[4] = test system: smooth musculus trachealis; assay: Relaxant activity of smooth musculus trachealis in guinea pig; set-up: species or system guinea pig (male Hartley); conditions: Cavia porcellus; tracheal chain strips, 37° C.; read-out: Concentration for 50% relaxation
Experimental: Male Hartley guinea pigs weighing 350 to 550 g were bleed to death, and immediately the tracheae were extirpated. According to the method of Takagi et al [cf. Chem. Pharm. Bull., 8, 716 (1958)], tracheal chain strips was prepared, and the sample was suspended on Magnus apparatus under addition of load of 0.5 g. The test was carried out at 37° C. of liquid temperature. After position of tonus was examined with histamine (10^-6 g/ml) and isoproterenol (10^-7 g/ml), the test compound dissolved in a mixture of dimethyl sulfoxide and physiological saline was added thereto, and the test compound was investigated with respect to the effect on smooth musculus trachealis. Theophylline was used as a positive comparative drug. The relaxation and the contraction of smooth musculus trachealis were recorded on servocorder (SR 6342: commercially available from Watanabe Instruments Corp.) by connecting Isotonic Transducer (TD-1125: commercially available from Nihon Kohden Kogyo Co., Ltd.) to a balancing box.

[5] = Acute toxicity in mouse; assay type: in vivo; conditions: 2 weeks observation
Experimental: The test was carried out with the compounds obtained in Examples 5 and 9. Groups of 5 male ddy mice weighing 26 to 28 g were employed. The test compounds were suspended in a 0.5% CMC aqueous solution and the resulting suspension was administered orally in an amount of 500 for the compound obtained in Example 9, 1000 or 2000 mg/kg body weight. The survivors were kept under observation daily for 2 weeks. From the results shown in Table 6, the LD50 of the compounds obtained in Example 5 and 9 were estimated to be more than 2000 mg/kg. The other compounds of the present invention also had the same toxicity as the above compounds.

[6] = test system: carrageenin edema in a foot-pad of rat; assay: Effect on carrageenin edema in a foot-pad of rat; assay type: in vivo, rat (male Wister); conditions: 4 hours after carrageenin; for Inhibition rate against swelling: vs 0.5% CMC group
Experimental: The test was carried out according to the modified method on a method of Winter et al [Proc. Soc. Exp. Biol Med., 111, 544-547 (1962)]. Five male Wister rats weighing 148 to 162 g which were subjected to fasting for 24 hours were used as one group.
The test compound was suspended in 0.5% aqueous solution of CMC, and the suspension was administered orally in a amount of 50 mg/kg. After 60 minutes, 0.1 ml of 1% carrageenin solution in physiological saline was injected subcutaneously into the foot-pad of the left hind foot. Four hours after the injection of carrageenin, the volume of the foot-pad was measured by the apparatus for measurement of foot-pad volume in rat (commercially available from Ugobasile).
Swelling volume was calculated from the difference between a volume of foot-pad before inflaming the foot-pad, i.e. normal volume and that after inflaming it. Effect of a test compound was expressed as inhibition rate against swelling by calculating percentage in comparison with the 0.5% CMC administration group.
Indomethacin (commercially available from Merck Co.) was used as a positive comparative drug.

[7] = 5 mg/kg p.o. (positive comparative drug)

| Molecule | inhibition at 10 µM [2] [%] | EC50 [4] [µg/mL] | inhibition in vivo at 5 mg/kg [1] [%] | inhibition at 10 µg/mL [3] [%] | further results |
| --- | --- | --- | --- | --- | --- |
| 5(3-Butyloxyallylaminophenyl)-1H-tetrazole [WP-833, reference compound] | – | – | – | – | Inhibition rate against PCA [1]: 42.8 ± 5.1% |
| CC(C)c1cccc2c(-c3nnn[nH]3)c(=O)n(Cc3ccccc3)c-2c1 [Example 5, 7-Iso-propyl-1-benzyl-3-(5-tetrazolyl)-1-azaazulane-2-one] | 1.5 | 1.2 (≈ 3.47 µM) | 94.8 ± 5.1 | 81.1 | Mortality ([5]; 1000 mg/kg p.o.): 0/5; Mortality ([5]; 2000 mg/kg p.o.): 0/5; LD50 at 336 h ([5]; mouse, in vivo, oral): > 2000 mg/kg |
| CCCCn1c2cccccc-2c(-c2nnn[nH]2)c1=O [Example 17] | – | – | -1.9 ± 9.2 | 89.5 | – |
| COc1ccc2c(c1)c(CC(=O)O)c(C)n2C(=O)c1ccc(Cl)cc1 [Indomethacin, reference compound] | – | – | – | – | Swelling volume 4 hours after inflaming, mean ± standard error [6, 7]: 0.47 ± 0.056 mL; Inhibition rate against swelling [6, 7]: 47.8% |
| Cc1ccc2c([nH]c(=O)c3c(=O)cc(C(=O)OCCC(C)C)oc32)c1C [repirinast, Isopentyl 5,6dihydro-7,8-dimethyl-4,5-dioxo-4Hpyrano[3,2c]quinoline2-carboxylate, reference compound] | – | – | 36.2 ± 5.8 | – | – |

Second part, led by results:

| inhibition at 10 µM [2] [%] | EC50 [4] [µg/mL] | Molecule | inhibition in vivo at 5 mg/kg [1] [%] | inhibition at 10 µg/mL [3] [%] | further results |
| --- | --- | --- | --- | --- | --- |
| 63.2 | – | O=c1c(-c2nnn[nH]2)c2cccccc-2n1Cc1ccccc1 [Example 3, 1-Benzyl-3-(5-tetrazolyl)-1-azaazulane-2-one] | 98.6 ± 3.5 | 84.9 | – |
| -1.1 | 6.6 (≈ 19.1 µM) | CC(C)c1cccc2n(Cc3ccccc3)c(=O)c(-c3nnn[nH]3)c-2c1 [Example 4, 5-Iso-propyl-1-benzyl-3-(5-tetrazolyl)-1-azaazulane-2-one] | 78.2 ± 4.1 | 84.4 | – |
| 41.8 | 3.4 (≈ 9.36 µM) | CC(C)c1cccc2c(-c3nnn[nH]3)c(=O)n(Cc3ccc(F)cc3)c-2c1 [Example 10, 1-(4-Fluorobenzyl)-7-iso-propyl-3-(5-tetrazolyl)-1-azaazulane-2-one] | – | 99.8 | Swelling volume 4 hours after inflaming, mean ± standard error ([6]; 50 mg/kg p.o.): 0.58 mL and 0.58 ± 0.036 mL; Inhibition rate against swelling ([6]; 50 mg/kg p.o.): 35.6% |
| 12.2 | 7.8 (≈ 20.9 µM) | CC(C)c1cccc2n(CCCc3ccccc3)c(=O)c(-c3nn[nH]n3)c-2c1 [Example 30] | 10.8 ± 11.1 | 99.5 | – |
| – | 52 (≈ 266 µM) | N#Cc1c2cccccc-2nc1N=[N+]=[N-] [Example 60, 2-Azido-3-cyano-1-azaazulene] | -27 ± 17.7 | 65.3 | – |
| 5.2 | – | N#Cc1c2cccccc-2nc1NCC(=O)O [Example 62, 3-Cyano-2-carboxymethylamino-1-azaazulene] | 14 ± 4.3 | 82.5 | – |

From patent USRE34918E, “Azaazulene compounds which are useful as antiallergic and antiinflammatory agents” (Kaken Pharmaceutical Co., Ltd., priority 1988, dated 1995)
